Reference: patent US7834023B2 (Portola Pharmaceuticals, Inc., priority 2006, dated 2010)
pIC50: −log10 of the molar value.

Target: T1, P2Y12 receptor (Homo sapiens, UniProt Q9H244)
T1 construct: endogenous in cells; host or cells: human platelets (outdated from blood banks or fresh), apyrase-washed, whole
Test: platelet ADP receptor binding assay (ARB): inhibition of [3H]2-MeS-ADP binding to platelets
Settings: [3H]2-MeS-ADP binding to apyrase-washed human platelets
Procedure: 1. The Ability of Candidate Molecules to Inhibit the Binding of [^3H]2-MeS-ADP to the […] Receptor on Platelets was Determined Using a Radioligand Binding Assay.
Utilizing this assay the potency of inhibition of such compounds with respect to [^3H]2-MeS-ADP binding to whole platelets is determined. Under the conditions described in II (3) below, the binding of [^3H]2-MeS-ADP is solely due to the interaction of this ligand with the P2Y12 receptor, in that all the specific binding measured in this assay is competable with a P2Y12 antagonist (i.e., the specific binding is reduced to background levels by competition with an excess of P2Y12 antagonist, with no competition of binding when a P2Y1 antagonist is pre-incubated with the platelet preparation). [^3H]2-MeS-ADP binding experiments are routinely performed with outdated human platelets collected by standard procedures at hospital blood banks. Apyrase-washed outdated platelets are prepared as follows (all steps at room temperature, if not indicated otherwise):
Outdated platelet suspensions are diluted with 1 volume of CGS and platelets pelleted by centrifugation at 1900×g for 45 minutes. Platelet pellets are resuspended at 3-6×10^9 platelets/ml in CGS containing 1 U/ml apyrase (grade V, Sigma, St. Louis, Mo.) and incubated for 15 minutes at 37° C. After centrifugation at 730×g for 20 minutes, pellets are resuspended in Hepes-Tyrode's buffer containing 0.1% BSA (Sigma, St. Louis, Mo.) at a concentration of 6.66×10^8 platelets/ml. Binding experiments are performed after >45 minutes resting of the platelets.
Alternatively, binding experiments are performed with fresh human platelets prepared as described in section I (Inhibition of ADP-Mediated Platelet Aggregation in vitro), except that platelets are resuspended in Hepes-Tyrode's buffer containing 0.1% BSA (Sigma, St. Louis, Mo.) at a concentration of 6.66×10^8 platelets/mil. Very similar results are obtained with fresh and outdated platelets.
A platelet ADP receptor binding assay (ARB) using the tritiated potent agonist ligand [^3H]2-MeS-ADP (Jantzen, H. M. et al. (1999) Thromb. Hemost. 81:111-117) has been adapted to the 96-well microtiter format. In an assay volume of 0.2 ml Hepes-Tyrode's buffer with 0.1% BSA and 0.6% DMSO, 1×10^8 apyrase-washed platelets are preincubated in 96-well flat bottom microtiter plates for 5 minutes with serial dilutions of test compounds before addition of 1 nM [^3H]2-MeS-ADP ([^3H]2-methylthioadenosine-5′-diphosphate, ammonium salt; specific activity 20-50 Ci/mmole, obtained by custom synthesis from Amersham Life Science, Inc., Arlington Heights, Ill., or NEN Life Science Products, Boston, Mass.). Total binding is determined in the absence of test compounds. Samples for nonspecific binding may contain 10 μM unlabelled 2-MeS-ADP (RBI, Natick, Mass.). After incubation for 15 minutes at room temperature, unbound radioligand is separated by rapid filtration and two washes with cold (4-8° C.) Binding Wash Buffer (10 mM Hepes pH 7.4, 138 mM NaCl) using a 96-well cell harvester (Minidisc 96, Skatron Instruments, Sterling, Va.) and 8×12 GF/C glassfiber filtermats (Printed Filtermat A, for 1450 Microbeta, Wallac Inc., Gaithersburg, Md.). The platelet-bound radioactivity on the filtermats is determined in a scintillation counter (Microbeta 1450, Wallac Inc., Gaithersburg, Md.). Specific binding is determined by subtraction of non-specific binding from total binding, and specific binding in the presence of test compounds is expressed as % of specific binding in the absence of test compound dilutions. IC50s were derived by non-linear regression analysis.

T1 sequence (Q9H244 whole entry): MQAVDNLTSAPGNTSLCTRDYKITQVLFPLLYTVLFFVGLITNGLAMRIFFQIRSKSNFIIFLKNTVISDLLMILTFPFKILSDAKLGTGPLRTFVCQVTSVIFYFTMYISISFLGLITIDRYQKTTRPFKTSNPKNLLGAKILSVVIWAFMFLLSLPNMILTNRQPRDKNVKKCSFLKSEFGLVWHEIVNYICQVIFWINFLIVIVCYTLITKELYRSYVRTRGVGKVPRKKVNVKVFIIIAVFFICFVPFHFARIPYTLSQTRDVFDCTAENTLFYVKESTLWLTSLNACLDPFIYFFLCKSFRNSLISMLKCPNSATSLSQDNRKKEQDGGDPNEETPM

Q: How did the pIC50 turn out when `COC(=O)C(NC(=O)c1ccc(N2COc3ccc(C)cc3C2=O)cc1)c1ccc(Cl)s1` (stereo not shown) [Compound 76, methyl 2-(5-chlorothiophen-2-yl)-2-(4-(6-methyl-4-oxo-2H-benzo[e][1,3]oxazin-3(4H)-yl)benzamido)acetate] was run?
A: < 6.30

Q: With `O=C(NC(C(=O)O)c1cccs1)c1ccc(-n2ccc3ccccc3c2=O)cc1` (stereo not shown) [Compound 97, 2-(4-(1-oxoisoquinolin-2(1H)-yl)benzamido)-2-(thiophen-2-yl)acetic acid] as the compound, how does the pIC50 read?
A: < 6.30

Q: With `O=C(NC(Cc1cccs1)C(=O)O)c1ccc(-n2c(=O)[nH]c3cc(NCc4ccc(F)cc4)ccc3c2=O)cc1` (stereo not shown) [Compound 3, 2-(4-(7-(4-fluorobenzylamino)-2,4-dioxo-1,2-dihydroquinazolin-3(4H)-yl)benzamido)-3-(thiophen-2-yl)propanoic acid] as the compound, how does the pIC50 read?
A: 6.30 to 7.30

Q: How did the pIC50 turn out when `CNc1cc2[nH]c(=O)n(-c3ccc(C(=O)NC(c4ccc(Cl)cc4)c4nnn[nH]4)cc3)c(=O)c2cc1F` (stereo not shown) [Compound 12, N-((4-chlorophenyl)(1H-tetrazol-5-yl)methyl)-4-(6-fluoro-7-(methylamino)-2,4-dioxo-1,2-dihydroquinazolin-3(4H)-yl)benzamide] was run?
A: < 6.30

Q: With `CNc1cc2c(cc1F)C(=O)N(c1ccc(C(=O)N[C@@H](Cc3ccccc3)C(=O)O)cc1)CO2` [Compound 60, (S)-2-(4-(6-fluoro-7-(methylamino)-4-oxo-2H-benzo[e][1,3]oxazin-3(4H)-yl)benzamido)-3-phenylpropanoic acid] as the compound, how does the pIC50 read?
A: 6.30 to 7.30

Q: `CCc1ccc2c(=O)n(-c3ccc(C(=O)NC(C(=O)O)c4ccc(Cl)s4)cc3)ccc2c1` (stereo not shown) [Compound 93, 2-(5-chlorothiophen-2-yl)-2-(4-(6-ethyl-1-oxoisoquinolin-2(1H)-yl)benzamido)acetic acid] was tested. Which pIC50 did it give?
A: < 6.30

Q: `CCOC(=O)C(NC(=O)c1ccc(-n2c(=O)[nH]c3cc(NC)c(F)cc3c2=O)cc1)c1ccc(Cl)s1` (stereo not shown) [Compound 26, ethyl 2-(5-chlorothiophen-2-yl)-2-(4-(6-fluoro-7-(methylamino)-2,4-dioxo-1,2-dihydroquinazolin-3(4H)-yl)benzamido)acetate] was tested. Which pIC50 did it give?
A: < 6.30

Q: `CNc1cc2[nH]c(=O)n(-c3ccc(C(=O)NC(c4cccc(C)c4)c4nnn[nH]4)cc3)c(=O)c2cc1F` (stereo not shown) [Compound 22] was tested. Which pIC50 did it give?
A: < 6.30

Q: `CNc1cc2[nH]c(=O)n(-c3ccc(C(=O)NC(C(=O)O)c4cccs4)cc3)c(=O)c2cc1F` (stereo not shown) [Compound 8, 2-(4-(6-fluoro-7-(methylamino)-2,4-dioxo-1,2-dihydroquinazolin-3(4H)-yl)benzamido)-2-(thiophen-2-yl)acetic acid] was tested. Which pIC50 did it give?
A: < 6.30

Q: How did the pIC50 turn out when `CNc1cc2[nH]c(=O)n(-c3ccc(C(=O)NC(c4nnn[nH]4)c4ccccc4Cl)cc3)c(=O)c2cc1F` (stereo not shown) [Compound 28, N-((2-chlorophenyl)(1H-tetrazol-5-yl)methyl)-4-(6-fluoro-7-(methylamino)-2,4-dioxo-1,2-dihydroquinazolin-3(4H)-yl)benzamide] was run?
A: < 6.30

Q: `COc1cccc2c1OCN(c1ccc(C(=O)NC(C(=O)O)c3ccc(Cl)s3)cc1)C2=O` (stereo not shown) [Compound 68, 2-(5-chlorothiophen-2-yl)-2-(4-(8-methoxy-4-oxo-2H-benzo[e][1,3]oxazin-3(4H)-yl)benzamido)acetic acid] was tested. Which pIC50 did it give?
A: < 6.30

Q: With `CNc1cc2[nH]c(=O)n(-c3ccc(C(=O)NC(Cc4cccs4)C(=O)O)cc3)c(=O)c2cc1F` (stereo not shown) [Compound 9, 2-(4-(6-fluoro-7-(methylamino)-2,4-dioxo-1,2-dihydroquinazolin-3(4H)-yl)benzamido)-3-(thiophen-2-yl)propanoic acid] as the compound, how does the pIC50 read?
A: < 6.30

Q: How did the pIC50 turn out when `CNc1cc2[nH]c(=O)n(-c3ccc(C(=O)N(CCC(=O)O)Cc4ccc(Cl)s4)cc3)c(=O)c2cc1F` [Compound 40, 3-(N-((5-chlorothiophen-2-yl)methyl)-4-(6-fluoro-7-(methylamino)-2,4-dioxo-1,2-dihydroquinazolin-3(4H)-yl)benzamido)propanoic acid] was run?
A: < 6.30

Q: With `O=C(NC(C(=O)O)c1ccc(Cl)s1)c1ccc(N2COc3ccccc3C2=O)cc1` (stereo not shown) [Compound 83, 2-(5-chlorothiophen-2-yl)-2-(4-(4-oxo-2H-benzo[e][31]oxazin-3(4H)-yl)benzamido)acetic acid] as the compound, how does the pIC50 read?
A: < 6.30

Q: With `CNc1cc2ncn(-c3ccc(C(=O)NC(C(=O)O)c4ccc(Cl)s4)cc3)c(=O)c2cc1F` (stereo not shown) [Compound 116, 2-(5-chlorothiophen-2-yl)-2-(4-(6-fluoro-7-(methylamino)-4-oxoquinazolin-3(4H)-yl)benzamido)acetic acid] as the compound, how does the pIC50 read?
A: 6.30 to 7.30

Q: With `CNc1cc2c(=O)n(-c3ccc(C(=O)NC(c4nnn[nH]4)c4ccc(Cl)s4)cc3)c(=O)[nH]c2cc1F` (stereo not shown) [Compound 49, N-((5-chlorothiophen-2-yl)(1H-tetrazol-5-yl)methyl)-4-(7-fluoro-6-(methylamino)-2,4-dioxo-1,2-dihydroquinazolin-3(4H)-yl)benzamide] as the compound, how does the pIC50 read?
A: < 6.30

Q: With `CNc1ccc2c(=O)n(-c3ccc(C(=O)NC(C(=O)O)c4ccc(Cl)s4)cc3)c(=O)[nH]c2c1` (stereo not shown) [Compound 20, 2-(5-chlorothiophen-2-yl)-2-(4-(7-(methylamino)-2,4-dioxo-1,2-dihydroquinazolin-3(4H)-yl)benzamido)acetic acid] as the compound, how does the pIC50 read?
A: 6.30 to 7.30

Q: `CNc1cc2[nH]c(=O)n(-c3ccc(C(=O)NC(C(=O)O)c4ccc(Cl)s4)c(OC)c3)c(=O)c2cc1F` (stereo not shown) [Compound 42, 2-(5-chlorothiophen-2-yl)-2-(4-(6-fluoro-7-(methylamino)-2,4-dioxo-1,2-dihydroquinazolin-3(4H)-yl)-2-methoxybenzamido)acetic acid] was tested. Which pIC50 did it give?
A: < 6.30

Q: `Cc1ccc2c(c1)OCN(c1ccc(C(=O)NC(C(=O)O)c3ccc(Cl)s3)cc1)C2=O` (stereo not shown) [Compound 69, 2-(5-chlorothiophen-2-yl)-2-(4-(7-methyl-4-oxo-2H-benzo[e][1,3]oxazin-3(4H)-yl)benzamido)acetic acid] was tested. Which pIC50 did it give?
A: < 6.30

Q: With `O=C(Nc1ccc(-n2c(=O)[nH]c3cc(NCc4ccc(F)cc4)ccc3c2=O)cc1)NC(C(=O)O)c1cccs1` (stereo not shown) [Compound 108, 2-(3-(4-(7-(4-fluorobenzylamino)-2,4-dioxo-1,2-dihydroquinazolin-3(4H)-yl)phenyl)ureido)-2-(thiophen-2-yl)acetic acid] as the compound, how does the pIC50 read?
A: 6.30 to 7.30

Q: With `CCc1ccc2c(c1)C(=O)N(c1ccc(C(=O)NC(C(=O)O)c3ccc(Cl)s3)cc1)CO2` (stereo not shown) [Compound 72, 2-(5-chlorothiophen-2-yl)-2-(4-(6-ethyl-4-oxo-2H-benzo[e][1,3]oxazin-3(4H)-yl)benzamido)acetic acid] as the compound, how does the pIC50 read?
A: < 6.30

Q: With `CCc1ccc2c(c1)CCN(c1ccc(C(=O)NC(C(=O)O)c3ccc(Cl)s3)cc1)C2=O` (stereo not shown) [Compound 119, 2-(5-chlorothiophen-2-yl)-2-(4-(6-ethyl-1-oxo-3,4-dihydroisoquinolin-2(1H)-yl)benzamido)acetic acid] as the compound, how does the pIC50 read?
A: < 6.30

Q: How did the pIC50 turn out when `CNc1cc2c(cc1F)C(=O)N(c1ccc(C(=O)NC(Cc3cccs3)C(=O)O)cc1)CO2` (stereo not shown) [Compound 64, 2-(4-(6-fluoro-7-(methylamino)-4-oxo-2H-benzo[e][1,3]oxazin-3(4H)-yl)benzamido)-3-(thiophen-2-yl)propanoic acid] was run?
A: 6.30 to 7.30

Q: `CNc1cc2[nH]c(=O)n(-c3cccc(C(=O)NC(C(=O)O)c4ccc(Cl)s4)c3)c(=O)c2cc1F` (stereo not shown) [Compound 111, 2-(5-chlorothiophen-2-yl)-2-(3-(6-fluoro-7-(methylamino)-2,4-dioxo-1,2-dihydroquinazolin-3(4H)-yl)benzamido)acetic acid] was tested. Which pIC50 did it give?
A: < 6.30

Q: How did the pIC50 turn out when `CCc1ccc2c(c1)OCN(c1ccc(C(=O)NC(C(=O)O)c3ccc(Cl)s3)cc1)C2=O` (stereo not shown) [Compound 78, 2-(5-chlorothiophen-2-yl)-2-(4-(7-ethyl-4-oxo-2H-benzo[e][1,3]oxazin-3(4H)-yl)benzamido)acetic acid] was run?
A: 6.30 to 7.30
